Experimental data as given in BigSolDB 2.1.

O=C1OC(=O)[C@H]2[C@@H]1[C@@H]1C=C[C@H]2C1
solubility (mole fraction)
Details	278.15 K	283.15 K	288.15 K	293.15 K	298.15 K	303.15 K	308.15 K	313.15 K	318.15 K	323.15 K
in 1,4-dioxane	–	–	0.0718	0.0836	0.0939	0.107	0.123	0.136	0.154	0.173
in DMF	0.0809	0.0925	0.106	0.12	0.135	0.152	0.171	0.186	0.208	0.23
in NMP	0.112	0.126	0.14	0.156	0.172	0.19	0.209	0.225	0.245	0.265
in acetone	0.0395	0.0475	0.0559	0.0658	0.0776	0.0897	0.106	0.121	0.138	0.155
in ethanol	0.00216	0.00264	0.00354	0.00441	0.0056	0.00699	0.00872	0.0109	0.0135	0.0168
in ethyl acetate	0.0293	0.0338	0.0413	0.0484	0.0535	0.0632	0.0737	0.0838	0.0969	0.11
in isobutyl acetate	0.0199	0.0236	0.0284	0.0341	0.0396	0.0468	0.0552	0.0636	0.0741	0.0848
in isopropyl acetate	0.021	0.0258	0.03	0.0357	0.0417	0.0489	0.0569	0.0661	0.0768	0.0878
in methanol	0.00403	0.00504	0.00635	0.00781	0.0101	0.0126	0.0157	0.0201	0.0246	0.0311
in methyl acetate	0.0358	0.0425	0.0485	0.0562	0.0644	0.0754	0.0851	0.0973	0.11	0.125
in n-butyl acetate	0.0216	0.0259	0.031	0.0367	0.0428	0.0505	0.0587	0.0683	0.0788	0.0908
in n-pentyl acetate	0.0192	0.0231	0.0276	0.0327	0.0388	0.0455	0.0535	0.0626	0.0726	0.0837
in n-propyl acetate	0.0249	0.0303	0.0357	0.0414	0.0486	0.0565	0.0661	0.0761	0.0878	0.101
